In ChEMBL document CHEMBL1201862, “PubChem BioAssay data set” (2004):
Calls of active or inactive are those of the source.

How the values were obtained:
[1] = biological target: T1, Cytochrome P450 1A2 (Homo sapiens, UniProt P05177);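 also: PubChem cytochrome P450 panel assay, CYP1A2 panel member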
T1 sequence (P05177 whole entry): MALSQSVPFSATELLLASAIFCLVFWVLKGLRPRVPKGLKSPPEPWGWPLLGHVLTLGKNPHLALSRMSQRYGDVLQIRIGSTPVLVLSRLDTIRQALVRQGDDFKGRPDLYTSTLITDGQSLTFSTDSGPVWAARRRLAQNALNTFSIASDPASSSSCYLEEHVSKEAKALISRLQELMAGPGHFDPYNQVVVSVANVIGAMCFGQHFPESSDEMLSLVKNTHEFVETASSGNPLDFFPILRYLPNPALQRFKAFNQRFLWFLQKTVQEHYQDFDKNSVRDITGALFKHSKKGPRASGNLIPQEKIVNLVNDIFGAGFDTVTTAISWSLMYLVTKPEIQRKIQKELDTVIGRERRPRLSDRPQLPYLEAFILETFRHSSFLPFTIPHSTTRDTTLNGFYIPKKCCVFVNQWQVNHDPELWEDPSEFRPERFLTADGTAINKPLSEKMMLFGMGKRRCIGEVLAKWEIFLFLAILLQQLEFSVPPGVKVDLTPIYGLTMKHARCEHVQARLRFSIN

[2] = biological target: Cytochrome P450 2D6 (Homo sapiens, UniProt P10635);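 also: CYP2D6 member of a cytochrome P450 panel assay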
[3] = system: INS1; assay: beta cell apoptosis inhibitors, cytokine rescue, dose response, luminescence, retest (AID 449756); format: functional, cell-based; settings: Rattus norvegicus;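 also: cell death triggered by IL-1 beta plus TNF-alpha plus IFN-gamma mixture; protective hits raise ATP signal compared with cytokine alone wells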
[4] = biological target: Sphingosine 1-phosphate receptor 2 (Homo sapiens, UniProt O95136); assay: Late stage counterscreen assay for S1P4 antagonists: Fluorescence dose response cell-based screening assay for antagonists of the Sphingosine 1-Phosphate Receptor 2 (S1P2). [Related pubchem assays (depositor defined):AID1510, AID1524, AID1692, AID1853, AID2332, AID489009, AID489017]; format: functional
[5] = biological target: T2, Sphingosine 1-phosphate receptor 1 (Homo sapiens, UniProt P21453); format: functional
[6] = biological target: Integrin alpha-4 (Homo sapiens, UniProt P13612); assay: VLA-4 integrin allosteric ligands, SAR follow-up, cell-based, LIBS antibody binding, flow cytometry (AID 488791); format: functional
[7] = growth suppression of PTEN-null colon cells, dose response, cell-based, HCT116 PTEN knockout (AID 1047); format: functional;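 also: HCT116 colon tumor cells with PTEN knocked out; cells exposed to compound for 60 hours before readout; potency for loss of cell viability measured by luminescence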
[8] = biological target: Sphingosine 1-phosphate receptor 3 (Homo sapiens, UniProt Q99500); assay: Late stage counterscreen assay for S1P4 antagonists: Fluorescence dose response cell-based screening assay for antagonists of the Sphingosine 1-Phosphate Receptor 3 (S1P3). [Related pubchem assays (depositor defined):AID1510, AID1524, AID1692, AID1853, AID2332, AID489009, AID489017]; format: functional
[9] = biological target: T3, Sphingosine 1-phosphate receptor 4 (Homo sapiens, UniProt O95977); assay: Fluorescence dose response cell-based high throughput screening assay for antagonists of the Sphingosine 1-Phosphate Receptor 4 (S1P4). [Related pubchem assays: 1524 (Confirmation in triplicates.), 1510 (Primary screen.)]; format: functional
T3 sequence (O95977 whole entry): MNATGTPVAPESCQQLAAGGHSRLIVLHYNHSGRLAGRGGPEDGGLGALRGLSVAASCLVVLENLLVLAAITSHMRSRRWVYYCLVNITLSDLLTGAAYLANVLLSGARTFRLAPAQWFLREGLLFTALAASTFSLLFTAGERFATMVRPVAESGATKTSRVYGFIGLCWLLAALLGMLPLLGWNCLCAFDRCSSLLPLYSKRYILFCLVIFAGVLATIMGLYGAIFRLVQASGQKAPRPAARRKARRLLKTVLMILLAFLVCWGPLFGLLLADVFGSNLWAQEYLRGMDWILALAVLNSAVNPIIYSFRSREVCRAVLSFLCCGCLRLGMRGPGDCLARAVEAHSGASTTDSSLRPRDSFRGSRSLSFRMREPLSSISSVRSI

[10] = biological target: T4, Heat shock factor protein 1 (Mus musculus, UniProt P38532); assay: inhibition of MG132-induced HSE-luciferase signal, confirmation, cell-based, NIH3T3, luminescence, dose retest (AID 2382); format: functional;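 also: NIH3T3 fibroblasts with HSF1-driven luciferase reporter stressed by proteasome inhibitor MG132; luminescence from HSF1-driven luciferase expression after 8 hours of MG132 stress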
T4 sequence (P38532 whole entry): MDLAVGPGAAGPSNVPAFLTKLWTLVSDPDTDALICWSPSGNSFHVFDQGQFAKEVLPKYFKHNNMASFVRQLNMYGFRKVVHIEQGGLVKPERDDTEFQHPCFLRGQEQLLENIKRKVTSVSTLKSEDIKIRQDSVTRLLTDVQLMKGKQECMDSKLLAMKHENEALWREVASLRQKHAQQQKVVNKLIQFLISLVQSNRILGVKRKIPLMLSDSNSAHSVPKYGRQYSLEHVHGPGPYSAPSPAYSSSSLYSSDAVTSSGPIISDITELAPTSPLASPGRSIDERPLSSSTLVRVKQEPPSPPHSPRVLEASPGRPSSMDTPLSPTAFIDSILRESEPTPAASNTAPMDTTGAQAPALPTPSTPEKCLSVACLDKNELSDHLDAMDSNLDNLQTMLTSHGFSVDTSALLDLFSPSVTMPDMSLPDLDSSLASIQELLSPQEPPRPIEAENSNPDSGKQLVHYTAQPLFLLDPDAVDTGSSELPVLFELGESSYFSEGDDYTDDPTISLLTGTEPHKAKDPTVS

[11] = biological target: Sphingosine 1-phosphate receptor 5 (Homo sapiens, UniProt Q9H228); assay: Late stage counterscreen assay for S1P4 antagonists: Fluorescence dose response cell-based screening assay for antagonists of the Sphingosine 1-Phosphate Receptor 5 (S1P5). [Related pubchem assays (depositor defined):AID1510, AID1524, AID1692, AID1853, AID2332, AID489009, AID489017]; format: functional
[12] = biological target: T2, Sphingosine 1-phosphate receptor 1; assay: Late stage counterscreen assay for S1P4 antagonists: Fluorescence dose response cell-based screening assay for antagonists of the Sphingosine 1-Phosphate Receptor 1 (S1P1). [Related pubchem assays (depositor defined):AID1510, AID1524, AID1692, AID1853, AID2332, AID489009, AID489017]; format: functional
[13] = biological target: G-protein coupled receptor 55 (Homo sapiens, UniProt Q9Y2T6); assay: GPR55 agonists via beta-arrestin recruitment, primary screen, imaging, U2OS cells, beta-arrestin-GFP redistribution (AID 1961); format: functional
[14] = biological target: T3, Sphingosine 1-phosphate receptor 4; assay: Late stage fluorescence dose response cell-based screening assay for antagonists of the Sphingosine 1-Phosphate Receptor 4 (S1P4). [Related pubchem assays: 1524 (Confirmation screen (S1P4 antagonists).), 1510 (Primary screen (S1P4 antagonists).), 1853 (Summary AID (S1P4 antagonists).), 1692 (Dose response screen (S1P4 antagonists).)]; format: functional
[15] = growth suppression of beta-catenin-knockout colon cells, dose response, cell-based, HCT116, human colon tumor (AID 1045); format: functional;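 also: HCT116 colon tumor cells with beta catenin knocked out; cells exposed to compound for 60 hours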
[16] = biological target: SUMO E1/E2 (Homo sapiens, UniProt P63279+Q9UBE0+Q9UBT2); assay: SAR analysis of SUMOylation using HTRF in an in-Vitro dose response assay. [Related pubchem assays (depositor defined):AID2006, AID2011, AID2018, AID2069, AID2658]; format: functional
[17] = biological target: T5, RNA-binding protein pos-1 (Caenorhabditis elegans, UniProt G5EF15); assay: inhibitors of POS-1/mex-3 RNA binding, dose response, biochemical, fluorescence polarization (AID 1964);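 also: purified POS-1 fused to maltose binding protein made in E. coli; potency of compounds blocking POS-1 binding to fluorescent RNA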
T5 sequence (G5EF15 whole entry): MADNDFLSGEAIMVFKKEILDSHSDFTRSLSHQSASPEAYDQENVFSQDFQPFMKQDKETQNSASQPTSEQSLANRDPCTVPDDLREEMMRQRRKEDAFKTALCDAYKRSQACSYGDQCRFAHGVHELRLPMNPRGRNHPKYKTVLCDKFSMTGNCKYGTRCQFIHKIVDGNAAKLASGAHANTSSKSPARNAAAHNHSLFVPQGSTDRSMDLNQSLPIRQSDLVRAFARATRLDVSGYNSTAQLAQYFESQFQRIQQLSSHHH

[18] = biological target: UDP-galactopyranose mutase (Mycobacterium tuberculosis, UniProt P9WIQ1); assay: Inhibitors of Mycobacterium tuberculosis UDP-galactopyranose mutase (UGM) enzyme Measured in Biochemical System Using Plate Reader - 2105-02_Inhibitor_Dose_CherryPick_Activity. [Related pubchem assays (depositor defined):AID504439]
Chain of UDP-galactopyranose mutase (P9WIQ1 whole entry): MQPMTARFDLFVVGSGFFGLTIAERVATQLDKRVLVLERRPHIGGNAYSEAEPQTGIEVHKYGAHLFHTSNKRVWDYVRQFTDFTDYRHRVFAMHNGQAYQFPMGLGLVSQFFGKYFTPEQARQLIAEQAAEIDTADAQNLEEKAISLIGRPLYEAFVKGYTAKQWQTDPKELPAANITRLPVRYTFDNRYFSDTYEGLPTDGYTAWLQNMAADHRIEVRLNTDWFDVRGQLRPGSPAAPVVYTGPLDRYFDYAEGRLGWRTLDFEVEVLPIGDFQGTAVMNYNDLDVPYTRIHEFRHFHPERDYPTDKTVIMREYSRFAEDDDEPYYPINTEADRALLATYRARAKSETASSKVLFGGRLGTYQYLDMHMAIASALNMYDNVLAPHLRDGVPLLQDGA

T2 sequence (P21453 whole entry): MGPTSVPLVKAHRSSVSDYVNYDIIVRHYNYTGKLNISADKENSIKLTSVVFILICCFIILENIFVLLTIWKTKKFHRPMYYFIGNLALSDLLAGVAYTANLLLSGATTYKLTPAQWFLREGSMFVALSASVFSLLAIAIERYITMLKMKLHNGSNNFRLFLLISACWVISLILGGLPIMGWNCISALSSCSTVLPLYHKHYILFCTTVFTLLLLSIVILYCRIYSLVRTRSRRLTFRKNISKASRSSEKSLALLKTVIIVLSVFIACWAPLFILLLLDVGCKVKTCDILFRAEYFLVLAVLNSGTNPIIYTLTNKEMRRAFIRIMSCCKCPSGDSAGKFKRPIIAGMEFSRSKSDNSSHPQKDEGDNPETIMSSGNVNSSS
Chain of Sphingosine 1-phosphate receptor 3 (Q99500 whole entry): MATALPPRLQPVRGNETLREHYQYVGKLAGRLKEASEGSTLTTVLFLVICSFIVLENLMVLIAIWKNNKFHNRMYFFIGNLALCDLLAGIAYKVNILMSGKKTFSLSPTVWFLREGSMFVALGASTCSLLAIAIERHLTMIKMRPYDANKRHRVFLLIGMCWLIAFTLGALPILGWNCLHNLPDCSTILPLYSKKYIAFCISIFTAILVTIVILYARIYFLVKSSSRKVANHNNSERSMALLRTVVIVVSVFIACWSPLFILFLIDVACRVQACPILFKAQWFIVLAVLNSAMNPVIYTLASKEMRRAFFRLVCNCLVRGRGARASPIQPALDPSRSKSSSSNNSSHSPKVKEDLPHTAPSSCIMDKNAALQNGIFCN
Chain of G-protein coupled receptor 55 (Q9Y2T6 whole entry): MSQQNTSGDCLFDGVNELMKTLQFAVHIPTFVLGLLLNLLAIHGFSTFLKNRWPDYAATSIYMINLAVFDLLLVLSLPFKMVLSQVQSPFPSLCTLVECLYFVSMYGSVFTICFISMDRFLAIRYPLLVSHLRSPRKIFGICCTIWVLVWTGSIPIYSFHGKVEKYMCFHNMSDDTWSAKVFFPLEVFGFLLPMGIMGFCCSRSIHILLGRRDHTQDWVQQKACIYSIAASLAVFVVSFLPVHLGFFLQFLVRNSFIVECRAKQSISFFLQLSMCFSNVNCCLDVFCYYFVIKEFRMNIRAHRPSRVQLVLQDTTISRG
Chain of Sphingosine 1-phosphate receptor 5 (Q9H228 whole entry): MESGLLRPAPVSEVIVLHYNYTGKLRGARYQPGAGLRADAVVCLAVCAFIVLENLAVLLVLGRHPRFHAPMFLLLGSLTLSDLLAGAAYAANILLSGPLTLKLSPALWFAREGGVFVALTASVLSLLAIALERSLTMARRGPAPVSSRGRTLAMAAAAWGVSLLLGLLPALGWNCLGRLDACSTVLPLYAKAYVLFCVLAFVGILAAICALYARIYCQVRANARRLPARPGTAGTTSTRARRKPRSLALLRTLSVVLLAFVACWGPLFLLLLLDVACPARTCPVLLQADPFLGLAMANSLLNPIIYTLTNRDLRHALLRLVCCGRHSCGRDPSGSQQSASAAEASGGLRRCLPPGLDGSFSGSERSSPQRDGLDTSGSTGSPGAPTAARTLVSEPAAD
Chain of SUMO E1/E2 (Q9UBE0 whole entry, the tested form may be a part): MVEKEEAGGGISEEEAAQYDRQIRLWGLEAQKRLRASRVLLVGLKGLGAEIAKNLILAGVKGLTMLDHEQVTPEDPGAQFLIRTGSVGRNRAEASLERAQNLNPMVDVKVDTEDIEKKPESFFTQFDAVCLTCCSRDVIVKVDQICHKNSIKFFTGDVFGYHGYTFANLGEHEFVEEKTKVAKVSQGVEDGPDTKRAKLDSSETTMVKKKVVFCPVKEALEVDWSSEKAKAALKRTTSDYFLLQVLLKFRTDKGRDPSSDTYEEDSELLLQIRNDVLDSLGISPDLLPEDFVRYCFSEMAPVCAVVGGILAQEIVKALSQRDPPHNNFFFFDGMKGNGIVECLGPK
Chain of SUMO E1/E2 (Q9UBT2 whole entry, the tested form may be a part): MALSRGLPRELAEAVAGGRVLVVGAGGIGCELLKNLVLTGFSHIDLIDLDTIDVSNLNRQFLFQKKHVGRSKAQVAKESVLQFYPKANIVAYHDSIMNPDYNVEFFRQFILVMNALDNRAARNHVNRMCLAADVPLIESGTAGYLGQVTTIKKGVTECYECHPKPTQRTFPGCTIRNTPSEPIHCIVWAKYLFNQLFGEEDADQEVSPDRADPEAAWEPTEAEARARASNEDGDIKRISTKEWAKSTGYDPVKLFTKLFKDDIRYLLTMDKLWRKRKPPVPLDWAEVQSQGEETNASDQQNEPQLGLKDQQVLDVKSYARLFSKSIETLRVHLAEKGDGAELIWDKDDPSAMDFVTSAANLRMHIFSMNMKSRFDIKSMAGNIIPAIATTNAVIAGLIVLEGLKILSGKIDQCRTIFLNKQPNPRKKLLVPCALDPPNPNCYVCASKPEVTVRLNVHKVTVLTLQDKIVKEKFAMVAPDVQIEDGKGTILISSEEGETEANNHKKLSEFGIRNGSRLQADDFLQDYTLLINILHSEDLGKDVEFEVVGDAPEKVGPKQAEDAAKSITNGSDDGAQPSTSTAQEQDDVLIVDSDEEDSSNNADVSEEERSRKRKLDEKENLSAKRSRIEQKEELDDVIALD
Chain of SUMO E1/E2 (P63279 whole entry, the tested form may be a part): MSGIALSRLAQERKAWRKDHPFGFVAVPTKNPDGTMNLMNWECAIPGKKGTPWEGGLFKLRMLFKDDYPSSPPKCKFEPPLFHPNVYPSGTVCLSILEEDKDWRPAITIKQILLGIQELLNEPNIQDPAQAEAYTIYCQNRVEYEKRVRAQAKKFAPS
Chain of Sphingosine 1-phosphate receptor 2 (O95136 whole entry): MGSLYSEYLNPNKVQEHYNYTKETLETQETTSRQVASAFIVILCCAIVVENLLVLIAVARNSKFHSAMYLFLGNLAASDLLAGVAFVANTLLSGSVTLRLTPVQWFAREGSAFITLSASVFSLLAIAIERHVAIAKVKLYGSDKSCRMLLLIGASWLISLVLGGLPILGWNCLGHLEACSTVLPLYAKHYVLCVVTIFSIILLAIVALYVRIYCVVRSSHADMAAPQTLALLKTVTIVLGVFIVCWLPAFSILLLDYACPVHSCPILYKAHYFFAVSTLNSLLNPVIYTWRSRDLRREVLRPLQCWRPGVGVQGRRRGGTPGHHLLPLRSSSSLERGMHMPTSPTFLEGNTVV
Chain of Cytochrome P450 2D6 (P10635 whole entry): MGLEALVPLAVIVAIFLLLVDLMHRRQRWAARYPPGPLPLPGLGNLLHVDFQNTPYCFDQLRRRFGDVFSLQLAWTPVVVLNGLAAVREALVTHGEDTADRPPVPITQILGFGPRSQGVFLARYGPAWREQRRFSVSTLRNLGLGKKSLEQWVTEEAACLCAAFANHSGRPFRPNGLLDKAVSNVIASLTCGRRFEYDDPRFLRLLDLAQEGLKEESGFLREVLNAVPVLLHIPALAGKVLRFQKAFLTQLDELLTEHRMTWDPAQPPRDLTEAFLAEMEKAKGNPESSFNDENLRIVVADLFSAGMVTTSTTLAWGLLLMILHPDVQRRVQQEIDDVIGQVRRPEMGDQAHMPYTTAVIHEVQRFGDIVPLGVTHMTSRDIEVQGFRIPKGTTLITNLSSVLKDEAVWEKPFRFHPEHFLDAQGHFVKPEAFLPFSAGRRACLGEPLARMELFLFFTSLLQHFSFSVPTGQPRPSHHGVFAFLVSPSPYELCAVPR
Chain of Integrin alpha-4 (P13612 whole entry): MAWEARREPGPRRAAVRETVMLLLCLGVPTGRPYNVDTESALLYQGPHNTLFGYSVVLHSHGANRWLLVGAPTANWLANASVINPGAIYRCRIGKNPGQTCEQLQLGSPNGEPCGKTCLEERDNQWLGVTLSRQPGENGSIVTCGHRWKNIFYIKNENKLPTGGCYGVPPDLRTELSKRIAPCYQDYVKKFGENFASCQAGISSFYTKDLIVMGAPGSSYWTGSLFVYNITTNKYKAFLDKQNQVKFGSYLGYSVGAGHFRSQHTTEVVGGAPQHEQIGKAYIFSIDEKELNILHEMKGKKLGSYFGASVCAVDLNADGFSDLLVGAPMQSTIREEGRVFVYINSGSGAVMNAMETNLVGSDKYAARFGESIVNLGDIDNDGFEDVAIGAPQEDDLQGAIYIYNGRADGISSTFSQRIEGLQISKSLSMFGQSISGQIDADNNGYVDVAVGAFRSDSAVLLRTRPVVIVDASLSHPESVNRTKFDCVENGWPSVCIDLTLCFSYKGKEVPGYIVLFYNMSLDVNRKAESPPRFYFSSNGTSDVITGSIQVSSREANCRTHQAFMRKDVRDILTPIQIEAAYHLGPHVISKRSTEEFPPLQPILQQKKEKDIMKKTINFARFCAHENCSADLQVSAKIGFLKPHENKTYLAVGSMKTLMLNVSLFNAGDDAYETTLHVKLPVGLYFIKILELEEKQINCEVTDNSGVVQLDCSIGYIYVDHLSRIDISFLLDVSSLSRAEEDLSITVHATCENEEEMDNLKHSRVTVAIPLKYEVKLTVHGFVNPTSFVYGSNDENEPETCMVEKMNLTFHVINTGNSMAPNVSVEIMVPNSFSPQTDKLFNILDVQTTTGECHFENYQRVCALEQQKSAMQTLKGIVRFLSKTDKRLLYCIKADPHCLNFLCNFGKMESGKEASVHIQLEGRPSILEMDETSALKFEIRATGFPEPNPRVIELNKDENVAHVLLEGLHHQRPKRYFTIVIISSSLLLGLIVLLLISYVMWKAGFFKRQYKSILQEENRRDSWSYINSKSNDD

Q: For `COc1ccccc1CN1CC2(CCN(S(C)(=O)=O)CC2)C1`, which AC50 [1] is on record?
A: inconclusive

Q: What about the AC50 [2] of the same compound?
A: inconclusive

Q: For `CCOC(=O)/C(=C\c1ccc(OC(F)F)cc1)C1=Nn2c(nnc2-c2ccc(Cl)cc2)SC1`, which AC50 [3] is on record?
A: 4.22 µM (active)

Q: What about the IC50 [4] of the same compound?
A: 0.614 µM (active)

Q: What about the IC50 [5] of the same compound?
A: 6.1 µM (active)

Q: And the EC50 [6]?
A: 11.8 µM (active)

Q: What about the EC50 [7] of the same compound?
A: 10.2 µM (active)

Q: And the IC50 [8]?
A: 0.494 µM (active)

Q: And the IC50 [9]?
A: 0.168 µM (active)

Q: What about the EC50 [10] of the same compound?
A: 6.62 µM (active)

Q: What about the IC50 [11] of the same compound?
A: 0.034 µM (active)

Q: What about the IC50 [12] of the same compound?
A: 0.351 µM (active)

Q: And the EC50 [13]?
A: > 32 µM (inactive)

Q: What about the IC50 [14] of the same compound?
A: 0.342 µM (active)

Q: And the EC50 [15]?
A: 9.67 µM (active)

Q: For `S=c1[nH]nc(-c2cc(-c3ccccc3)[nH]n2)n1N=Cc1ccc(Cl)c(Cl)c1`, which IC50 [16] is on record?
A: > 100 µM (inactive)

Q: For `COCCNC(=O)Cn1cc(/C=C2\C(=O)NC(=O)N(c3ccccc3F)C2=O)c2ccccc21`, which EC50 [17] is on record?
A: 6.32 µM (active)

Q: What about the AC50 [18] of the same compound?
A: 32.1 µM (active)
